Data as given in US4354039A, “Chlorocitric acids” (Hoffmann-La Roche Inc., priority 1981, dated 1982).
“And” between values parts separate entries of the source, which are not always exact repeats. Equal values may be shown once. Read-outs that look alike come from different tables or passages of the source.

Key:
[1] = Effect of stereoisomers on food consumption of meal-fed rats (Example 14); type: in vivo, Charles River female rats
Method: Animals were fasted 48 hr, then meal-fed the 70% glucose diet described by A. C. […] Following 5 to 12 days alimentation on the meal-feeding regimen, rats were dosed with the appropriate compounds orally by intubation 1/2 hr before the 3 hr meal. Food cups were weighed immediately after the meal. The control group consisted of 5 to 10 rats, while the experimental group consisted of 4 to 6 rats.

isolated rat hepatocytes = experiment: Fatty acid and cholesterol synthesis and CO2 production in isolated hepatocytes (Example 23); type: cell-based, Female Charles River rats; conditions: for activity at 2000 µM: Rattus norvegicus, Hepatocyte, 1 h
Method: Female Charles River rats were fasted 48 hr, then meal-fed a 1% corn oil, 70% glucose diet for 7 to 14 days from 8 to 11 a.m. The isolated rat hepatocytes were prepared by perfusing the liver in situ. The hepatocytes were incubated in an oscillating water bath at 37° C. for 60 min. […] All incubations were done in triplicate and all experiments were repeated at least twice. […] The contents of the center well were transferred to scintillation counting fluid and ^14 CO2 content was determined. […] The media was then acidified, extracted with hexane, and the extract counted (to determine the rate of lipogenesis). The conversion of ^3 H2 O and [^14 C]alanine into fatty acids or sterols was determined in a PDS/3, Mark II liquid scintillation counting system.

[2] = Body composition of meal-fed rats, 16 day study (Example 20); type: in vivo, Charles River female rats; conditions: in words
Method: Two month old Charles River female rats (Charles River Breeding Laboratories, Wilmington, Mass.) were individually housed in wire-bottomedcages in a temperature-regulated (22° C.) light-controlled room (12 hr light, 6 a.m. to 6 p.m. and 12 hr dark, 6 p.m. to 6 a.m.). […] (1) control, (2) (-)-threo-chlorocitric acid (1.0 mmoles/kg, 227 mg/kg) administered by oral intubation 30 min before the 3 hr meal, and (3) (-)-threo-chlorocitric acid (1.1 mmoles/kg, 250 mg/kg as a dietary admixture for the 3 hr meal. Treatment was continued for 16 days. After 16 days of treatment, rats were killed by decapitation and blood was removed. […] C. Sullivan, et al, Am. J. Clinical Nutrition, 30 767 (1977). […] Total carcass lipid data are expressed in grams and percentages of carcass weight. An aliquot of saponified carcass extract was neutralized and total carcass nitrogen was determined using the Kjeldahl procedure described in "Hawks" Physiological Chemistry," B. L. Oser, ed., McGraw Book Co., New York, N.Y., 1965, page 1214. Carcass protein data are expressed in grams and percentages of carcass weight.

[3] = Body weight and food intake in meal-fed rats, oral, 17 day study (Example 21); type: in vivo, Charles River female rats; conditions: for CBWG, cumulative body weight gain / CFC, cumulative food consumption / FBW, final body weight: 17 days; for IBW, initial body weight: baseline
Method: Two month old Charles River female rats (Charles River Breeding Laboratories, Wilmington, Mass.) were individually housed in wire-bottomedcages in a temperature-regulated (22° C.) light-controlled room (12 hr light, 6 a.m. to 6 p.m. and 12 hr dark, 6 p.m. to 6 a.m.). […] On the 8th day, the animals were administered water or (-)-threo-chlorocitric acid at the indicated concentration by oral intubation 30 min before the 3 hr meal. Treatment was continued for 17 days. Food cups were weighed immediately after the meal. The amount of body weight gained and food consumed during the period was determined.

[4] = Chow, 0.25 mmoles (57 mg)/kg oral
[5] = Chow, 0.50 mmoles (114 mg)/kg oral
[6] = Chow, 1.00 mmoles (227 mg)/kg oral

O=C(O)C[C@@](O)(C(=O)O)[C@@H](Cl)C(=O)O [(-)-threo-Chlorocitric acid]
Food Consumption, % of control ([1]; 0.66 mmoles/kg oral): 59 % of control | Food Consumption, % of control ([1]; 2.63 mmoles/kg oral): 16 % of control | CO2 Production, [14C]alanine converted (isolated rat hepatocytes; 2 mM, 60 min, 37° C., 2000 µM): 91 % of control | Cholesterol Synthesis, [14C]alanine converted (isolated rat hepatocytes; 2 mM, 60 min, 37° C., 2000 µM): 92 % of control | Fatty Acid Synthesis, 3H2O converted (isolated rat hepatocytes; 2 mM, 60 min, 37° C., 2000 µM): 95 % of control | Fatty Acid Synthesis, [14C]alanine converted (isolated rat hepatocytes; 2 mM, 60 min, 37° C., 2000 µM): 124 % of control and 96 % of control | activity at 2000 µM (isolated rat hepatocytes; 2 mM, 60 min, 37° C., read-out: CO2 Production, [14C]alanine converted): 83% | activity at 2000 µM (isolated rat hepatocytes; 2 mM, 60 min, 37° C., read-out: Cholesterol Synthesis, 3H2O converted): 116% | activity at 2000 µM (isolated rat hepatocytes; 2 mM, 60 min, 37° C., read-out: Cholesterol Synthesis, [14C]alanine converted): 88% | activity at 2000 µM (isolated rat hepatocytes; 2 mM, 60 min, 37° C., read-out: Fatty Acid Synthesis, 3H2O converted): 106% | inhibition of lipid (fatty acid) and cholesterol syntheses (isolated rat hepatocytes; in words): devoid of metabolic activity as an inhibitor of lipid and cholesterol syntheses | weight loss, carcass analysis [2]: weight loss was due to reduction in body lipids | CBWG, cumulative body weight gain [3, 4]: -1 ± 4 g | CFC, cumulative food consumption [3, 4]: 186 ± 9 g | FBW, final body weight [3, 4]: 213 ± 7 g | IBW, initial body weight [3, 4]: 214 ± 7 g | CBWG, cumulative body weight gain [3, 5]: -32 ± 6 g | CFC, cumulative food consumption [3, 5]: 165 ± 9 g | FBW, final body weight [3, 5]: 177 ± 6 g | IBW, initial body weight [3, 5]: 209 ± 5 g | CBWG, cumulative body weight gain [3, 6]: -30 ± 7 g | CFC, cumulative food consumption [3, 6]: 130 ± 13 g | FBW, final body weight [3, 6]: 176 ± 11 g | IBW, initial body weight [3, 6]: 207 ± 3 g | IBW, initial body weight ([3]; G-70 diet, 0.25 mmoles (57 mg)/kg oral): 198 ± 4 g | IBW, initial body weight ([3]; G-70 diet, 0.50 mmoles (114 mg)/kg oral): 195 ± 4 g | IBW, initial body weight ([3]; G-70 diet, 1.00 mmoles (227 mg)/kg oral): 198 ± 3 g
